This is an account of results in patent US9359605B2, “Method of treating cancer by inhibition of DNA repair proteins” (Sarissa Inc., priority 2011, dated 2016).

Where two headings read alike, the source gives them in different places. d = 2'-deoxy (DNA); m = 2'-O-methyl

Series [1] relates to A549b cells. Put plainly: Anti-proliferative activity of a drug on A549b cells pretreated with anti-BRCA2 OLIGO/siRNA. Type of series: cell-based. The following applies: Homo sapiens, curves conservatively extrapolated, read-out: concentration of olaparib required to inhibit proliferation of A549b cells by 50% (IC50). As for the experimental part: OLIGOs were introduced into cells with the use of Lipofectamine 2000 (LFA2K) (Invitrogen, Burlington, Ontario, Canada). OLIGOs were mixed with LFA2K at a ratio of 0.2 μg/ml per 10 nM OLIGO. The mixture was prepared at 11× the final concentration to which cells were exposed, so that 200 μL was added to 2 mL of medium in which cells were plated. After incubating at room temperature for 20 minutes, according to manufacturer's instructions, the OLIGOs were added to the cell medium. The OLIGO/LFA2K mix was then incubated (37° C.) on the cells for 4 hours, after which a second volume of medium was added. Cells were then incubated for 20 hours. […]
For cells treated with the drug olaparib, for the purposes of determining whether inhibitory activity was enhanced by the OLIGO pretreatment, olaparib was added at this time, in concentrations of from 0.01 μM to 3 μM. […] Following a further 4-day incubation, the proliferation of the treated cells (fold-increase in cell number) was calculated as a percentage of that of control cells. […] As indicated in Example 1, for the purpose of determining the anti-proliferative effect of antisense OLIGOs alone, the proliferation of cells treated with antisense OLIGOs was calculated as a percent of that of cells treated with an equivalent concentration of non-complementary control OLIGO (in this case OLIGO 32). […]

For series [2], the system named is A549b cells. Put plainly: Proliferation of A549b cells after transfection with antisense OLIGO/siRNA (cell counting, % of control OLIGO). In kind it is cell-based, human. The settings on record: 20 nM; compared to non-targeting OLIGO 491S; preliminary assay, FIG. 12. As for the experimental part:
Cultured cell lines were maintained in minimum essential medium a with nucleosides plus 10% fetal bovine serum and penicillin (50 units/mL)/streptomycin (50 mg/L) (growth medium). Cultures were incubated in a humidified atmosphere of 5% CO2 at 37° C. Cultured cell lines were maintained and cytotoxicity assays conducted as described previously (3). Rapidly proliferating cells were utilized for establishing cultures of experimental cells, which were allowed to plate overnight in 25-cm^2 flasks prior to manipulation. […]
OLIGOs were introduced into cells with the use of Lipofectamine 2000 (LFA2K) (Invitrogen, Burlington, Ontario, Canada). […] Following the 4-day incubation, the proliferation of the treated cells (fold-increase in cell number) was calculated as a percentage of that of control cells. […] For the purpose of determining the anti-proliferative effect of antisense OLIGOs, the proliferation of cells treated with antisense OLIGOs was calculated as a percent of that of cells treated with an equivalent concentration of non-complementary control OLIGO (in this case OLIGO 32) mixed with an equivalent amount of LFA2K.
These experiments were carried out essentially as described in Example 2, after which one volume of medium was added, and cells were further incubated for 20 hours. […] Cells were incubated for 4 days, at which time cell number was counted. […]

In series [3] the test system is thymidylate synthase mRNA. Briefly: RT-qPCR of TS mRNA 24 h after OLIGO transfection of A549 cells. In kind it is cell-based, human. The following applies: 20 nM OLIGO, 24 h post-transfection, FIG. 16. As for the experimental part: (§1) Briefly, A549 cells seeded at a density of 2.0×10^5 per flask were transfected with 20 nM of OLIGO specific for each target or control OLIGO using Lipofectamine 2000 as the transfection reagent. Twenty four hours post-transfection mRNA was extracted and reverse transcribed into cDNA. RT-qPCR was performed for target mRNA levels using TaqMan reagents according to established protocols.
(In qPCR the cycle at which signal appears reflects the starting amount.)

Series [4] has as its system BRCA2 mRNA. Briefly: RT-qPCR of BRCA2 mRNA 24 h after OLIGO transfection of A549 cells. The following applies: 20 nM OLIGO, 24 h post-transfection, FIG. 16. In kind it is cell-based, human. On the procedure:
as §1

In the case of `O=C(c1cc(Cc2n[nH]c(=O)c3ccccc23)ccc1F)N1CCN(C(=O)C2CC2)CC1` [olaparib], the IC50 in series [1] (in the absence of BR1) is roughly 5000 nM; in series [1] (in the presence of BR1 (pretreatment)) it was roughly 50 nM.
In the case of “OLIGO 83: antisense to 3′-untranslated region of thymidylate synthase mRNA, 5′-gccaguGGCAACATccuuaa-3′ (SEQ ID NO: 25), fully phosphorothioated (antisense GCCAGUGGCAACATCCUUAA; sugars from the 5' end m6 d8 m6, all phosphorothioate, methylation of C not given here)”, the relative proliferation entry in series [2] is reported as “approximately 20%”. Also, the “effect on TS mRNA level” value in series [3] is “reduce”. In series [4], the “effect on BRCA2 mRNA level” value is recorded as “no significant effect”.
